Results from patent US10125135B2, “Chemical compounds” (AstraZeneca AB, priority 2016, dated 2018).

Legend:
[1] = target: ERα receptor in MCF-7 human ductal carcinoma breast cell line (Homo sapiens (Human), UniProt P03372); assay: MCF-7 ER down regulation assay (immuno-fluorescence); type: cell-based; settings: MCF-7 cells, 18-22 hours incubation; read-out: ER down regulation IC50 value
[2] = Human hepatocyte assay (metabolic stability); type: in vitro ADME; settings: human hepatocytes, 37° C., 1.0×10^6 viable cells/mL; read-out: Clint (in vitro intrinsic clearance)
Method: The metabolic stability of compounds in human hepatocytes was assessed using the following protocol: • 1. Prepare 10 mM stock solutions of compound and control compounds in appropriate solvent (DMSO). Place incubation medium (L-15Medium) in a 37° C. water bath, and allow warming for at least 15 minutes prior to use. • 2. Add 80 μL of acetonitrile to each well of the 96-well deep well plate (quenching plate). • 3. In a new 96-well plate, dilute the 10 mM test compounds and the control compounds to 100 μM by combining 198 μL of acetonitrile and 2 μL of 10 mM stock. • 4. Remove a vial of cryopreserved (less than −150° C.) human hepatocytes (LiverPool™ 10 Donor Human hepatocytes obtained from Celsis IVT. Chicago, Ill. (Product No. S01205)) from storage, ensuring that vials remain at cryogenic temperatures until thawing process ensues. As quickly as possible, thaw the cells by placing the vial in a 37° C. water bath and gently shaking the vials. Vials should remain in water bath until all ice crystals have dissolved and are no longer visible. After thawing is completed, spray vial with 70% ethanol, transfer the vial to a bio-safety cabinet. • 5. Open the vial and pour the contents into the 50 mL conical tube containing thawing medium. Place the 50 mL conical tube into a centrifuge and spin at 100 g for 10 minutes. […] Using Cellometer® Vision, count cells and determine the viable cell density. Cells with poor viability (<80% viability) are not acceptable for use. Dilute cells with incubation medium to a working cell density of 1.0×10^6 viable cells/mL. • 7. Transfer 247.5 μL of hepatocytes into each well of a 96-well cell culture plate. Place the plate on Eppendorf Thermomixer Comfort plate shaker to allow the hepatocytes to warm for 10 minutes. • 8. Add 2.5 μL of 100 μM test compound or control compounds into an incubation well containing cells, mix to achieve a homogenous suspension at 0.5 min, which when achieved, will define the 0.5 min time point. At the 0.5 min time, transfer 20 μL incubated mixture to wells in a “Quenching plate” followed by vortexing. • 9. Incubate the plate at 37° C. at 900 rpm on an Eppendorf Thermomixer Comfort plate shaker. At 5, 15, 30, 45, 60, 80, 100 and 120 min, mix the incubation system and transfer samples of 20 μL incubated mixture at each time point to wells in a separate “Quenching plate” followed by vortexing. • 10. Centrifuge the quenching plates for 20 minutes at 4,000 rpm. 4 different compounds are pooled into one cassette and used for LC/MS/MS analysis.
All calculations are carried out using Microsoft Excel. Peak areas are determined from extracted ion chromatograms. In vitro intrinsic clearance (in vitro Clint, in μL/min/10^6 cells) of parent compound is determined by regression analysis of the Ln percent parent disappearance vs. time curve. The in vitro intrinsic clearance (in vitro Clint, in μL/min/10^6 cells) is determined from the slope value using the following equation and is shown in Table C:
V=incubation volume (0.25 mL);
N=number of hepatocytes per well (0.25×10 ^6 cells).

ERα receptor in MCF-7 human ductal carcinoma breast cell line, sequence (P03372 whole entry): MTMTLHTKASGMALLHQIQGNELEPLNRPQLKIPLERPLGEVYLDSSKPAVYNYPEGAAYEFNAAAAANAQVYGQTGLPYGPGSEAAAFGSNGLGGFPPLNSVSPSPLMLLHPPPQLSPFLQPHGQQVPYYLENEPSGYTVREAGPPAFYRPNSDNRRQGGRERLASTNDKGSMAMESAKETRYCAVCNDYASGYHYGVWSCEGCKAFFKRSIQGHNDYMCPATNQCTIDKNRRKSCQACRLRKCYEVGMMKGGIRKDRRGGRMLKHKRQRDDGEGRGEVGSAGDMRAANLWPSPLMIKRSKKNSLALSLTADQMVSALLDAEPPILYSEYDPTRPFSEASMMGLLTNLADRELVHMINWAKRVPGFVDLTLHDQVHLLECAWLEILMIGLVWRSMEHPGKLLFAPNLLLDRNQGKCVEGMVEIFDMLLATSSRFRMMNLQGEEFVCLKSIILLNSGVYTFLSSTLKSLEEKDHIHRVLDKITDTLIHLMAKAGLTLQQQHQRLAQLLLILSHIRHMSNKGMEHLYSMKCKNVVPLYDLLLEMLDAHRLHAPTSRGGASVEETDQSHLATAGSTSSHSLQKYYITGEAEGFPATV

SMILES	DC50 [1]	hepatocyte CLint at 1 µM [2]
COc1cc(OCCN2CC(CF)C2)ccc1[C@@H]1c2ccc3[nH]ncc3c2C[C@@H](C)N1CC(C)(C)F [Example 5, (6S,8R)-7-(2-fluoro-2-methylpropyl)-6-(4-(2-(3-(fluoromethyl)azetidin-1-yl)ethoxy)-2-methoxyphenyl)-8-methyl-6,7,8,9-tetrahydro-3H-pyrazolo[4,3-f]isoquinoline]	0.16 nM	12 µL/min/1e6 cells
COc1cc(OCCN2CC(CF)C2)ccc1[C@@H]1c2ccc3[nH]ncc3c2C[C@@H](C)N1CC1(F)CC1 [Example 6, (6S,8R)-7-((1-fluorocyclopropyl)methyl)-6-(4-(2-(3-(fluoromethyl)azetidin-1-yl)ethoxy)-2-methoxyphenyl)-8-methyl-6,7,8,9-tetrahydro-3H-pyrazolo[4,3-f]isoquinoline]	0.13 nM	7 µL/min/1e6 cells
C[C@@H]1Cc2c(ccc3[nH]ncc23)[C@@H](c2ccc(OCCN3CC(CF)C3)cn2)N1CC1(F)CC1 [Example 8, (6S,8R)-7-((1-fluorocyclopropyl)methyl)-6-(5-(2-(3-(fluoromethyl)azetidin-1-yl)ethoxy)pyridin-2-yl)-8-methyl-6,7,8,9-tetrahydro-3H-pyrazolo[4,3-f]isoquinoline]	0.39 nM	8 µL/min/1e6 cells
COc1cc(OCCN2CC(CF)C2)ccc1[C@@H]1c2ccc3[nH]ncc3c2C[C@@H](C)N1CC(C)C [Example 9, (6S,8R)-6-(4-(2-(3-(fluoromethyl)azetidin-1-yl)ethoxy)-2-methoxyphenyl)-7-isobutyl-8-methyl-6,7,8,9-tetrahydro-3H-pyrazolo[4,3-f]isoquinoline]	0.5 nM	3 µL/min/1e6 cells
C[C@@H]1Cc2c(ccc3[nH]ncc23)[C@@H](c2ccc(OCCN3CC(CF)C3)cn2)N1CC(F)(F)F [Example 49, (6S,8R)-6-(5-(2-(3-(fluoromethyl)azetidin-1-yl)ethoxy)pyridin-2-yl)-8-methyl-7-(2,2,2-trifluoroethyl)-6,7,8,9-tetrahydro-3H-pyrazolo[4,3-f]isoquinoline]	0.21 nM	3 µL/min/1e6 cells
C[C@@H]1Cc2c(ccc3[nH]ncc23)[C@@H](c2ccc(OCCN3CC(CF)C3)cn2)N1CC(F)F [Example 51, (6S,8R)-7-(2,2-difluoroethyl)-6-(5-(2-(3-(fluoromethyl)azetidin-1-yl)ethoxy)pyridin-2-yl)-8-methyl-6,7,8,9-tetrahydro-3H-pyrazolo[4,3-f]isoquinoline]	0.54 nM	5 µL/min/1e6 cells
